Patent US20150133297A1, “NEW ANTIFUNGAL COMPOSITIONS” (DSM IP ASSETS B.V., priority 2012, published 2015)
Several values for one entry are separate records, joined by “and”; a condition that tells them apart may be missing. Equal values may be shown once.

What was measured:
Penicillium italicum = test: Treatment of oranges (Examples 6-9): wounded, inoculated, wound treated with antifungal composition; assay type: in vivo; details: for Observed antifungal activity O (%): oranges, 20° C.
Procedure: During incubation, mould growth on the strawberries was assessed in a twofold manner: (i) the number of moulded strawberries per total of 12 strawberries was counted; and (ii) the antifungal activity (in %) of the individual and combined active ingredients was determined by calculating the reduction in mould growth observed on the strawberries treated with the antifungal composition in comparison to the mould growth on the strawberries treated with the control composition. The expected antifungal activity (E in %) of the combined antifungal composition comprising both active ingredients was calculated according to the Colby equation (Colby, 1967): […]
Eight fresh, organic oranges were used per treatment. Each orange was soaked in a 180 ppm hypochlorite solution for 10 minutes, then rinsed thoroughly with fresh tap water and dried. The peel of each disinfected orange was wounded once using a cork borer according to the method described by de Lapeyre de Bellaire and Dubois (1987). Subsequently, each wound was inoculated with 10 μl of a Penicillium italicum suspension containing 5×10^5 of spores/ml. After incubation for 3 hours at 20° C., each wound and the orange peel area of 1 cm around the wound was treated with in total 150 μl of a freshly prepared aqueous antifungal composition comprising either 500 ppm natamycin (DSM Food Specialties, Delft, The Netherlands), 500 ppm fenpropidin or both. Each antifungal composition also comprised 3.2% (w/w) beeswax, 0.8% (w/w) glycerol, 0.7% (w/w) polyoxyethylene sorbitan monostearate (Tween 60), 0.1% (w/w) polyoxyethylene sorbitan monooleate (Tween 80), 0.05% (w/w) methylhydroxyethyl-cellulose (MHEC), 0.03% (w/w) anti-foaming agent, 0.02% (w/w) xanthan gum, 0.02% (w/w) citric acid, 0.01% (w/w) lactic acid and 0.01% potassium sorbate. A composition without natamycin or fenpropidin was used as control. […] The treated oranges were incubated in a closed box in the dark at 20° C. and assessed on mould growth during a 28-day incubation period. The antifungal activity (in %) of the individual and combined active ingredients was determined by calculating the reduction in mould growth observed on the oranges treated with the antifungal composition in comparison to the mould growth on the oranges treated with the control composition according to the Colby method (Colby, 1967) as described in Example 5.
(§1) The experiment was conducted as described in Example 6, except for the fact that each wounded and inoculated orange was treated with 150 μl of a freshly prepared aqueous antifungal composition comprising either 250 ppm natamycin (DSM Food Specialties, Delft, The Netherlands), 250 ppm fenpropidin or both. During the 26-day incubation period, the treated oranges were assessed on mould growth according to the two methods described in Example 5.
as §1, with “either 500” for “either 250”, “Netherlands), 400” for “Netherlands), 250”, “ppm spiroxamine” for “ppm fenpropidin”
as §1, with “Netherlands), 200” for “Netherlands), 250”, “ppm spiroxamine” for “ppm fenpropidin”

Botrytis cinerea = test: Treatment of strawberries (Example 5): wounded, inoculated, dipped in antifungal composition; assay type: in vivo; details: 500 ppm natamycin, 600 ppm fenpropidin or both
Procedure: Twelve fresh, organic strawberries were used per treatment. Each strawberry was wounded with a 0.5 mm long cut and each wound was inoculated with 10 μl of a Botrytis cinerea suspension containing 1×10^5 of spores/ml. […] A composition without natamycin or fenpropidin was used as control. […] The treated strawberries were incubated in a closed box in the dark at 20° C. for 9 days. During incubation, mould growth on the strawberries was assessed in a twofold manner: […] The expected antifungal activity (E in %) of the combined antifungal composition comprising both active ingredients was calculated according to the Colby equation (Colby, 1967): […] wherein X and Y are the observed antifungal activities (in %) of the individual active ingredients X and Y, respectively.

[1] = Day 11, 20° C., 250 ppm natamycin, 200 ppm spiroxamine or both
[2] = Day 12, 20° C., 250 ppm natamycin, 200 ppm spiroxamine or both
[3] = Day 13, 20° C., 250 ppm natamycin, 200 ppm spiroxamine or both
[4] = Day 14-15, 20° C., 250 ppm natamycin, 200 ppm spiroxamine or both
[5] = Day 14-16, 20° C., 500 ppm natamycin, 400 ppm spiroxamine or both
[6] = Day 16, 20° C., 250 ppm natamycin, 200 ppm spiroxamine or both
[7] = Day 18, 20° C., 250 ppm natamycin, 200 ppm spiroxamine or both
[8] = Day 18, 20° C., 500 ppm natamycin, 400 ppm spiroxamine or both
[9] = Day 19-21, 20° C., 500 ppm natamycin, 400 ppm spiroxamine or both
[10] = Day 19-25, 20° C., 250 ppm natamycin, 200 ppm spiroxamine or both
[11] = Day 22-23, 20° C., 500 ppm natamycin, 400 ppm spiroxamine or both
[12] = Day 26, 20° C., 250 ppm natamycin, 200 ppm spiroxamine or both
[13] = days 19 through 26, 250 ppm natamycin, 200 ppm spiroxamine or both
[14] = day 11, 250 ppm natamycin, 200 ppm spiroxamine or both
[15] = day 12, 250 ppm natamycin, 200 ppm spiroxamine or both
[16] = day 13, 250 ppm natamycin, 200 ppm spiroxamine or both
[17] = day 14, 250 ppm natamycin, 200 ppm spiroxamine or both
[18] = day 15, 250 ppm natamycin, 200 ppm spiroxamine or both
[19] = day 16, 250 ppm natamycin, 200 ppm spiroxamine or both
[20] = day 18, 250 ppm natamycin, 200 ppm spiroxamine or both
[21] = day 18, 500 ppm natamycin, 400 ppm spiroxamine or both
[22] = day 19, 250 ppm natamycin, 200 ppm spiroxamine or both
[23] = day 19, 500 ppm natamycin, 400 ppm spiroxamine or both
[24] = day 20, 250 ppm natamycin, 200 ppm spiroxamine or both
[25] = day 20, 500 ppm natamycin, 400 ppm spiroxamine or both
[26] = day 21, 250 ppm natamycin, 200 ppm spiroxamine or both
[27] = day 21, 500 ppm natamycin, 400 ppm spiroxamine or both
[28] = day 22, 250 ppm natamycin, 200 ppm spiroxamine or both
[29] = day 22, 500 ppm natamycin, 400 ppm spiroxamine or both
[30] = day 23, 250 ppm natamycin, 200 ppm spiroxamine or both
[31] = day 23, 500 ppm natamycin, 400 ppm spiroxamine or both
[32] = day 25-26, 500 ppm natamycin, 400 ppm spiroxamine or both
[33] = day 25, 250 ppm natamycin, 200 ppm spiroxamine or both
[34] = day 26, 250 ppm natamycin, 200 ppm spiroxamine or both

C[C@@H]1C/C=C/C=C/C=C/C=C/[C@H](O[C@@H]2O[C@H](C)[C@@H](O)[C@H](N)[C@@H]2O)C[C@@H]2O[C@](O)(C[C@@H](O)C[C@H]3O[C@@H]3/C=C/C(=O)O1)C[C@H](O)[C@H]2C(=O)O [Natamycin, natamycin]
Number of moulded oranges/total number of 8 oranges (Penicillium italicum; [1]): 5 and 5/8 | Number of moulded oranges/total number of 8 oranges (Penicillium italicum; [2]): 5 and 5/8 | Number of moulded oranges/total number of 8 oranges (Penicillium italicum; [3]): 5/8 | Number of moulded oranges/total number of 8 oranges (Penicillium italicum; [4]): 6/8 | Number of moulded oranges/total number of 8 oranges (Penicillium italicum; [5]): 5/8 | Number of moulded oranges/total number of 8 oranges (Penicillium italicum; [6]): 6 and 6/8 | Number of moulded oranges/total number of 8 oranges (Penicillium italicum; [7]): 6 and 6/8 | Number of moulded oranges/total number of 8 oranges (Penicillium italicum; Day 18, 20° C., 250 ppm natamycin, 250 ppm fenpropidin or both): 6/8 | Number of moulded oranges/total number of 8 oranges (Penicillium italicum; [8]): 6/8 | Number of moulded oranges/total number of 8 oranges (Penicillium italicum; Day 19, 20° C., 250 ppm natamycin, 250 ppm fenpropidin or both): 7/8 | Number of moulded oranges/total number of 8 oranges (Penicillium italicum; [9]): 6 and 6/8 | Number of moulded oranges/total number of 8 oranges (Penicillium italicum; [10]): 7/8 | Number of moulded oranges/total number of 8 oranges (Penicillium italicum; Day 20, 20° C., 250 ppm natamycin, 250 ppm fenpropidin or both): 7/8 | Number of moulded oranges/total number of 8 oranges (Penicillium italicum; Day 21-22, 20° C., 250 ppm natamycin, 250 ppm fenpropidin or both): 7 and 7/8 | Number of moulded oranges/total number of 8 oranges (Penicillium italicum; [11]): 6 and 6/8 | Number of moulded oranges/total number of 8 oranges (Penicillium italicum; Day 23-26, 20° C., 250 ppm natamycin, 250 ppm fenpropidin or both): 7 and 7/8 | Number of moulded oranges/total number of 8 oranges (Penicillium italicum; [12]): 7/8 | moulded oranges of the 8 oranges (Penicillium italicum; [13]): 7 | Observed antifungal activity O (%) (Penicillium italicum; [14]): 80% | Observed antifungal activity O (%) (Penicillium italicum; [15]): 73% | Observed antifungal activity O (%) (Penicillium italicum; [16]): 63% | Observed antifungal activity O (%) (Penicillium italicum; [17]): 50% | Observed antifungal activity O (%) (Penicillium italicum; [18]): 46% | Observed antifungal activity O (%) (Penicillium italicum; [19]): 43% | Observed antifungal activity O (%) (Penicillium italicum; [20]): 41% | Observed antifungal activity O (%) (Penicillium italicum; day 18, 250 ppm natamycin, 250 ppm fenpropidin or both): 41% | Observed antifungal activity O (%) (Penicillium italicum; [21]): 32% | Observed antifungal activity O (%) (Penicillium italicum; [22]): 36% | Observed antifungal activity O (%) (Penicillium italicum; day 19, 250 ppm natamycin, 250 ppm fenpropidin or both): 36% | Observed antifungal activity O (%) (Penicillium italicum; [23]): 29% | Observed antifungal activity O (%) (Penicillium italicum; [24]): 34% | Observed antifungal activity O (%) (Penicillium italicum; day 20, 250 ppm natamycin, 250 ppm fenpropidin or both): 34% | Observed antifungal activity O (%) (Penicillium italicum; [25]): 20% | Observed antifungal activity O (%) (Penicillium italicum; [26]): 32% | Observed antifungal activity O (%) (Penicillium italicum; day 21, 250 ppm natamycin, 250 ppm fenpropidin or both): 32% | Observed antifungal activity O (%) (Penicillium italicum; [27]): 16% | Observed antifungal activity O (%) (Penicillium italicum; [28]): 29% | Observed antifungal activity O (%) (Penicillium italicum; day 22, 250 ppm natamycin, 250 ppm fenpropidin or both): 29% | Observed antifungal activity O (%) (Penicillium italicum; [29]): 14% | Observed antifungal activity O (%) (Penicillium italicum; day 22, 500 ppm natamycin, 500 ppm fenpropidin or both): 14% | Observed antifungal activity O (%) (Penicillium italicum; [30]): 25% | Observed antifungal activity O (%) (Penicillium italicum; day 23, 250 ppm natamycin, 250 ppm fenpropidin or both): 25% | Observed antifungal activity O (%) (Penicillium italicum; [31]): 14% | Observed antifungal activity O (%) (Penicillium italicum; day 23, 500 ppm natamycin, 500 ppm fenpropidin or both): 14% | Observed antifungal activity O (%) (Penicillium italicum; [32]): 14% | Observed antifungal activity O (%) (Penicillium italicum; [33]): 19% | Observed antifungal activity O (%) (Penicillium italicum; day 25, 250 ppm natamycin, 250 ppm fenpropidin or both): 19% | Observed antifungal activity O (%) (Penicillium italicum; day 25, 500 ppm natamycin, 500 ppm fenpropidin or both): 14% | Observed antifungal activity O (%) (Penicillium italicum; [34]): 17% | Observed antifungal activity O (%) (Penicillium italicum; day 26, 250 ppm natamycin, 250 ppm fenpropidin or both): 17% | Observed antifungal activity O (%) (Penicillium italicum; day 26, 500 ppm natamycin, 500 ppm fenpropidin or both): 14% | Observed antifungal activity O (%) (Penicillium italicum; day 27, 500 ppm natamycin, 500 ppm fenpropidin or both): 14% | Observed antifungal activity O (%) (Penicillium italicum; day 28, 500 ppm natamycin, 500 ppm fenpropidin or both): 14% | Number of moulded strawberries/total number of 12 strawberries (Botrytis cinerea; Day 5, 20° C.): 11 | Number of moulded strawberries/total number of 12 strawberries (Botrytis cinerea; Day 6, 20° C.): 12

CCCN(CC)CC1COC2(CCC(C(C)(C)C)CC2)O1 (stereo not shown) [Spiroxamine, spiroxamine]
Number of moulded oranges/total number of 8 oranges (Penicillium italicum; [1]): 7 and 7/8 | Number of moulded oranges/total number of 8 oranges (Penicillium italicum; [2]): 8 and 8/8 | Number of moulded oranges/total number of 8 oranges (Penicillium italicum; [3]): 8/8 | Number of moulded oranges/total number of 8 oranges (Penicillium italicum; [4]): 8/8 | Number of moulded oranges/total number of 8 oranges (Penicillium italicum; [5]): 8/8 | Number of moulded oranges/total number of 8 oranges (Penicillium italicum; [6]): 8 and 8/8 | Number of moulded oranges/total number of 8 oranges (Penicillium italicum; [7]): 8 and 8/8 | Number of moulded oranges/total number of 8 oranges (Penicillium italicum; [8]): 8/8 | Number of moulded oranges/total number of 8 oranges (Penicillium italicum; [9]): 8 and 8/8 | Number of moulded oranges/total number of 8 oranges (Penicillium italicum; [10]): 8/8 | Number of moulded oranges/total number of 8 oranges (Penicillium italicum; [11]): 8 and 8/8 | Number of moulded oranges/total number of 8 oranges (Penicillium italicum; [12]): 8/8 | moulded oranges of the 8 oranges (Penicillium italicum; after 14 through 16 days and 18 days of incubation, 500 ppm natamycin, 400 ppm spiroxamine): 8 | moulded oranges of the 8 oranges (Penicillium italicum; days 13 through 15, 250 ppm natamycin, 200 ppm spiroxamine or both): 8 | moulded oranges of the 8 oranges (Penicillium italicum; [13]): 8 | Observed antifungal activity O (%) (Penicillium italicum; [14]): 75% | Observed antifungal activity O (%) (Penicillium italicum; [15]): 64% | Observed antifungal activity O (%) (Penicillium italicum; [16]): 48% | Observed antifungal activity O (%) (Penicillium italicum; [17]): 39% | Observed antifungal activity O (%) (Penicillium italicum; [18]): 31% | Observed antifungal activity O (%) (Penicillium italicum; [19]): 20% | Observed antifungal activity O (%) (Penicillium italicum; [20]): 3% | Observed antifungal activity O (%) (Penicillium italicum; [21]): 22% | Observed antifungal activity O (%) (Penicillium italicum; [22]): 0% | Observed antifungal activity O (%) (Penicillium italicum; [23]): 8% | Observed antifungal activity O (%) (Penicillium italicum; [24]): 0% | Observed antifungal activity O (%) (Penicillium italicum; [25]): 0% | Observed antifungal activity O (%) (Penicillium italicum; [26]): 0% | Observed antifungal activity O (%) (Penicillium italicum; [27]): 0% | Observed antifungal activity O (%) (Penicillium italicum; [28]): 0% | Observed antifungal activity O (%) (Penicillium italicum; [29]): 0% | Observed antifungal activity O (%) (Penicillium italicum; [30]): 0% | Observed antifungal activity O (%) (Penicillium italicum; [31]): 0% | Observed antifungal activity O (%) (Penicillium italicum; [32]): 0% | Observed antifungal activity O (%) (Penicillium italicum; [33]): 0% | Observed antifungal activity O (%) (Penicillium italicum; [34]): 0%
